Patent publication US20260083126A1, “ANTIMICROBIAL COMPOSITIONS” (AHV International B.V., priority 2022, published 2026)
Converted amounts (≈) assume the structure as drawn. Read-outs that look alike come from different tables or passages of the source.

Columns and labels:
[1] = tested on: Acinetobacter baumanni RUH875; test: MIC assay; format: cell-based; settings: for MIC90 / MIC50: Acinetobacter
Protocol: (§1) The exact weighed amount was noted and the volume of solvent to reach a 80 mM dilution calculated. Half of the volume was added first, by adding Tween 80 and let stand for 5 minutes. In a second step, the other half of the volume DMSO was added and resuspended to help the dilution process. The closed tube was inverted 5-10 times and then vortexed very thoroughly for at least 30 seconds. If after this procedure crystals were still visible, the tube was placed in a shaker at 37° C. at 150 rpm for at least 30 minutes (it is indicated if the dissolution period was longer than 2 h). […] In case of Bis(4-Chlorophenyl) thiosulfonate, a lower concentrated stock solution of 2 mM needed to be prepared. For that, the required amount of compound was weighed in and 2% v/v Tween80 and 2% v/v DMSO of the end volume of the stock solution was added to the substance. This mix was heated in a water bath set to 40° C. and occasionally shaken. When the whole amount of the substance reached dissolution, the volume was filled up with growth medium until the end volume. This 2 mM stock solution of Bis(4-Chlorophenyl) thiosulfonate was used in the MIC plate and diluted two-fold, resulting in a testing range of Bis(4-Chlorophenyl) thiosulfonate from 1 mM to 0.002 mM.
(§2) The microorganisms as indicated in Table 4 were used to inoculate a tryptic soy agar (TSA) plate and incubated overnight at 37° C. After incubation 3-5 well-isolated colonies with the same morphology were selected from the TSA plate and resuspended in 2 mL 0.9% saline solution with 3-6 glass beads and vortexed. The optical density at 600 nm (OD600) of the bacterial suspension was measured with a spectrophotometer (Evolution™ 201/220 UV-Visible Spectrophotometer, Thermo Fisher Scientific) and diluted to an OD600 of 0.0008, which resembles 10^6 CFU/mL.
(§3) The MIC assay was performed in a flat-bottom 96-microtiter plate. 50 μL of MHB-II was added into columns 2-11, and 100 μL to column 12 for sterility control. 100 μL of the 8 mM test compound solution (method 1) was added to column 1. A two-fold dilution series of the solution in MHB-II was achieved by resuspending 50 μL of the 8 mM solution from column 1 to column 2. This step was repeated until column 10. The respective concentration of Tween 80 and DMSO in column 1 was 2.5%, which is two-fold diluted throughout the plate. 50 μL of the bacterial suspension was added to column 1-11. The microtiter plates were sealed with adhesive polyethylene film for sealing microplates (Diversified Biotech) and incubated for 24 h at 37° C. After incubation the OD was measured at 600 nm with the Varioskan (Thermo Fisher Scientific). The minimal concentration which causes reduction of final OD600 of the bacterial culture by 50% (MIC50) and by 90% (MIC90) was calculated after normalization of the obtained OD values to the growth control in column 11. This assay was repeated three times in three independent experiments.
(§4) Hereafter, the stock solutions of the compounds were used in three repetitions in a minimal inhibitory concentration (MIC) assay at a 2-fold dilution range with various bacteria from the gram-positive and gram-negative group and a yeast, Candida albicans. The concentrations that show only less than 10% growth after 24 h were considered the MIC90-values, whereas the concentrations that show 50% growth after 24 h when compared to the bacterial growth control were considered the MIC50-values. Escherichia coli and Staphylococcus aureus were used as representatives for a gram-negative bacteria and gram-positive bacteria, respectively. Furthermore, the yeast C. albicans was also tested.
(§5) In an Eppendorf tube between 10-20 mg of the test compound was weighed. Hereafter, the required amount of Tween 80 was added, followed by the amount DMSO. After vigorous shaking, the dissolved and transparent dilutions were diluted 10 times with Mueller Hinton Broth (MHB) for the MIC assay. […]

[2] = tested on: Klebsiella pneumoniae ATCC 13883; test: MIC assay; format: cell-based; settings: for MIC50 Klebsiella pneumoniae / MIC90 Klebsiella pneumoniae / MIC50 / MIC90: Example 2a, n = 3, ATCC 13883; for MIC50 / MIC90: Klebsiella pneumoniae, ATCC13883
Protocol: as §1, §2, §3, §4, §5

[3] = tested on: Staphylococcus aureus (MRSA) LUH14616; test: MIC assay; format: cell-based; settings: for MIC50 / MIC90: Staphylococcus aureus, MRSA
Protocol: as §1, §2, §3, §4, §5

[4] = tested on: Escherichia coli ATCC 25922; test: MIC assay; format: cell-based; settings: for MIC50 / MIC90: Escherichia coli, ATCC25922
Protocol: as §1, §2, §3, §4, §5

[5] = tested on: Streptococcus uberis ATCC 27985; test: MIC assay; format: cell-based; settings: for MIC50 / MIC90: Streptococcus uberis, ATCC27985
Protocol: as §1, §2, §3, §4, §5

[6] = tested on: plant pathogens; test: Colony diameter on agar plates, all tested fungi (conclusion); format: cell-based; settings: conclusion of Example 7b
Protocol: In particular, the antimicrobial activity of bis(p-chlorophenyl) disulfide (AM2), bis(p-fluorophenyl) disulfide (AM3), bis(p-chlorophenyl) thiosulfonate (AM6) and diisopropyl thiosulfonate (AM8) of the invention is tested against pathogenic fungi selected from Pythium aphanidermatum, Phytophthora cinnamiomi, Fusarium oxysporum, Sclerotinia sclerotiorum, Rhizoctonia solani and Botrytis cinerea.
Experimental design. The effects of mentioned compounds on growth of the fungi were tested on agar plates with various dilutions of the compounds. The fungus was inoculated in the middle of the agar plate. At various time intervals the diameter of the colony was measured.
The fungi were pregrown on appropriate agar media, for example potato dextrose agar or malt extract agar at 24 C. After 3, 7, 10 and 14 days of incubation at 24 C, the diameter of the fungal colonies were measured on the agar plates. Since the agar plates have a diameter of 8 cm, this was the maximum colony size.
Agar media were prepared with various dilutions of bis(p-chlorophenyl) disulfide (AM2), bis(p-fluorophenyl) disulfide (AM3), bis(p-chlorophenyl) thiosulfonate (AM6) and diisopropyl thiosulfonate (AM8).
The test compounds were added to the agar media when the liquid agar medium was still hand-warm to prevent heat-dependent decomposition of the compounds. 50-fold concentrated stock solutions of the antimicrobial compounds of each dilution were prepared in 50% tween-80 and 50% DMSO (in this way the concentrations DMSO and tween 80 were the same in all agar plates). The following concentrations of the antimicrobial compounds were used for each strain in agar plates: 1.0 mM, 0.50 mM, 0.25 mM, 0.125 mM and 0.063 mM in the corresponding medium as indicated in table 12. Each concentration was tested in 4-fold in 8 cm diameter petridishes and each dish contained 11 ml agar medium.
Hereafter, the plates were inoculated in the middle of the dish. Incubation took place at 24 C. Colony diameters were measured at t=3, 7, 10 and 14 days after inoculation. Since the diameter of the petri dishes are 8 cm this diameter was the maximal diameter that was measured.

[7] = tested on: Lactococcus garvie Isolate 2; test: MIC assay; format: cell-based, Lactococcus garvieae; settings: for MIC50 / MIC90: Lactococcus
Protocol: as §1, §2, §3, §4, §5

[8] = RUH875, Example 2b, FIG. 1, no MIC90 detected in the tested range, read-out: Average MIC90 A. baumanni (Ab)
[9] = Example 2a, n = 3, RUH875, read-out: MIC90 Acinetobacter baumanni
[10] = Example 2a, n = 3, LUH14616, read-out: MIC90 Staphylococcus aureus (+) (MRSA)
[11] = Example 2a, n = 3, ATCC 25922, read-out: MIC90 Escherichia coli
[12] = Example 2b, FIG. 1, no MIC90 detected in the tested range, read-out: Average MIC90 E. coli (Ec)
[13] = Example 2a, n = 3, ATCC 27985, read-out: MIC90 Streptococcus uberis (+)
[14] = Example 2a, n = 3, Isolate 2, read-out: MIC90 Lactococcus garvie (+)
[15] = Example 2b, FIG. 1, no MIC90 detected in the tested range, read-out: Average MIC90 L. garvieae (Lg)

SMILES | MIC50 Acinetobacter baumanni ([1]; Example 2a, n = 3, RUH875) [µM] | MIC90 Acinetobacter baumanni ([1]; Example 2a, n = 3, RUH875) [µM] | MIC50 Klebsiella pneumoniae [2] [µM] | MIC90 Klebsiella pneumoniae [2] [µM] | MIC50 Staphylococcus aureus (+) (MRSA) ([3]; Example 2a, n = 3, LUH14616) [µM] | MIC90 Staphylococcus aureus (+) (MRSA) ([3]; Example 2a, n = 3, LUH14616) [µM] | MIC50 Escherichia coli ([4]; Example 2a, n = 3, ATCC 25922) [µM] | MIC90 Escherichia coli ([4]; Example 2a, n = 3, ATCC 25922) [µM] | MIC50 Streptococcus uberis (+) ([5]; Example 2a, n = 3, ATCC 27985) [µM] | MIC90 Streptococcus uberis (+) ([5]; Example 2a, n = 3, ATCC 27985) [µM] | growth of plant pathogens [6] | MIC50 Lactococcus garvie (+) ([7]; Example 2a, n = 3, Isolate 2) [µM] | MIC90 Lactococcus garvie (+) ([7]; Example 2a, n = 3, Isolate 2) [µM] | MIC90 [1, 8] [µM] | MIC50 ([1]; Example 2a, n = 3, RUH875) [µM] | MIC90 [1, 9] [µM] | MIC50 [2] [µM] | MIC90 [2] [µM] | MIC50 ([3]; Example 2a, n = 3, LUH14616) [µM] | MIC90 [3, 10] [µM] | also measured
O=S(=O)(Sc1ccc(Cl)cc1)c1ccc(Cl)cc1 [Bis (4-chlorophenyl) thiosulfonate, Bis(4-chlorophenyl) thiosulfonate] | >1000 | >1000 | >1000 | >1000 | 60 | 750 | >1000 | >1000 | 60 | 500 | clearly inhibited | 90 | 500 | – | – | – | – | – | – | – | –
O=S(=O)(Sc1ccc(F)cc1)c1ccc(F)cc1 [Bis (4-fluorophenyl) thiosulfonate, Bis(4-fluorophenyl) thiosulfonate] | 2830 | >4000 | >4000 | >4000 | <8 | 1270 | 1500 | >4000 | 670 | 1330 | – | 220 | 830 | – | – | – | – | – | – | – | –
Fc1ccc(SSc2ccc(F)cc2)cc1 [Bis (4-fluorophenyl) disulfide, Bis(4-fluorophenyl) disulfide] | – | – | – | – | – | – | – | – | – | – | clearly inhibited | – | – | > 4000 | 3000 (≈ 763 µg/mL) | > 4000 | > 4000 | > 4000 | < 8 | 2330 (≈ 593 µg/mL) | Average MIC90 K. pneumoniae (Kp) ([2]; Example 2b, FIG. 1, no MIC90 detected in the tested range): above 4000 μM; MIC50 ([4]; Example 2a, n = 3, ATCC 25922): 1250 µM (≈ 318 µg/mL); MIC90 [4, 11]: > 4000 µM; MIC90 [4, 12]: > 4000 µM; MIC50 ([5]; Example 2a, n = 3, ATCC 27985): 210 µM (≈ 53.4 µg/mL); MIC90 [5, 13]: 630 µM (≈ 160 µg/mL); MIC50 ([7]; Example 2a, n = 3, Isolate 2): 250 µM (≈ 63.6 µg/mL); MIC90 [7, 14]: > 4000 µM; MIC90 [7, 15]: > 4000 µM
Clc1ccc(SSc2ccc(Cl)cc2)cc1 [Bis (4-chlorophenyl) disulfide, Bis(4-chlorophenyl) disulfide] | – | – | – | – | – | – | – | – | – | – | clearly inhibited | – | – | > 1000 | > 4000 | > 4000 | > 4000 | > 4000 | < 8 | 190 (≈ 54.6 µg/mL) | MIC90 ([3]; Example 2b, FIG. 1, no MIC90 detected in the tested range, read-out: Average MIC90 S. aureus (Sau)): > 1000 µM; MIC50 ([4]; Example 2a, n = 3, ATCC 25922): > 4000 µM; MIC90 [4, 11]: > 4000 µM; MIC90 [4, 12]: > 1000 µM; MIC50 ([5]; Example 2a, n = 3, ATCC 27985): 20 µM (≈ 5.74 µg/mL); MIC90 [5, 13]: 50 µM (≈ 14.4 µg/mL); MIC90 ([5]; Example 2b, FIG. 1, no MIC90 detected in the tested range, read-out: Average MIC90 S. uberis (Su)): > 1000 µM; MIC50 ([7]; Example 2a, n = 3, Isolate 2): 1350 µM (≈ 388 µg/mL); MIC90 [7, 14]: > 4000 µM; MIC90 [7, 15]: > 1000 µM
[O-][S+](Sc1ccc(F)cc1)c1ccc(F)cc1 (stereo not shown) [Bis (4-fluorophenyl) thiosulfinate, Bis(4-fluorophenyl) thiosulfinate] | 2000 (≈ 541 µg/mL) | >4000 | 2500 (≈ 676 µg/mL) | >4000 | 280 (≈ 75.7 µg/mL) | 1770 (≈ 478 µg/mL) | 1000 (≈ 270 µg/mL) | >4000 | 420 (≈ 114 µg/mL) | 1500 (≈ 405 µg/mL) | – | 130 (≈ 35.1 µg/mL) | 830 (≈ 224 µg/mL) | – | – | – | – | – | – | – | –
CC(C)SS(=O)(=O)C(C)C [Di-isopropyl thiosulfonate] | – | – | – | – | – | – | – | – | – | – | clearly inhibited | – | – | – | – | – | – | – | – | – | –
